This note sets out measurements from PubChem BioAssay (NCI).

Each structure is given as a SMILES string.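 The compound was tested at five concentrations on cells cultured in 96-well plates, with a 48-hour exposure period. GI50 is the concentration that inhibits growth by half. TGI: concentration producing complete growth inhibition.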

Some test systems named below: CCRF-CEM leukemia; IGROV1 ovarian; MOLT-4 leukemia; OVCAR-8 ovarian; RXF 393 renal; SF-295 CNS; SF-539 CNS; SK-MEL-28 melanoma; SNB-19 CNS.
Holding throughout (assay): NCI-60 cell line screen, 48 h

In the case of `COC(=O)C1=C(C(=O)OC)C2(c3ccccc3)OC1(c1ccccc1)c1cc3ccccc3cc12`, the TGI with CCRF-CEM leukemia amounted to 4.55 µM; with IGROV1 ovarian it was 3.78 µM; in the assay with MOLT-4 leukemia it was 3.64 µM; with OVCAR-8 ovarian it was 2.96 µM; with RXF 393 renal, 2.57 µM; in the assay on SF-295 CNS, 19.8 µM. The TGI was 3.03 µM in the assay on SF-539 CNS, 3.82 µM in the assay with SK-MEL-28 melanoma and 15.5 µM in the assay with SNB-19 CNS.

In the case of `OC(c1ccccc1Br)(c1ccccc1Br)C(F)(F)F`, the TGI in the assay with IGROV1 ovarian was more than 100 µM; with MOLT-4 leukemia it was 31.6 µM; in the assay with OVCAR-8 ovarian it was more than 100 µM; in the assay on RXF 393 renal it was 34.5 µM; in the assay on SF-295 CNS, 38.9 µM; with SF-539 CNS it was more than 100 µM. The compound also registered a TGI in the assay with SK-MEL-28 melanoma of 95.5 µM.

Turning to `COC(=O)C(C(=O)C(=O)Nc1c(Cl)cc([N+](=O)[O-])cc1Cl)c1csc(-n2nc(C3=CCCCC3)cc2-c2ccccc2)n1` (stereo not drawn), the TGI with CCRF-CEM leukemia, in the assay with MOLT-4 leukemia, in the assay with OVCAR-8 ovarian, in the assay with RXF 393 renal, in the assay on SF-295 CNS and in the assay on SF-539 CNS was more than 100 µM throughout. In the assay on SNB-19 CNS, this compound returned a TGI of more than 100 µM.

Consider `O=C1N[C@@H]2CCCC[C@@H]2C12CCCCC2`, for which the TGI with CCRF-CEM leukemia, in the assay with IGROV1 ovarian, with MOLT-4 leukemia, in the assay with OVCAR-8 ovarian, in the assay with RXF 393 renal and with SF-295 CNS was more than 100 µM throughout. For the same compound, the TGI in the assay on SF-539 CNS, with SK-MEL-28 melanoma and with SNB-19 CNS was more than 100 µM in each case.

For the compound `CCOC(=O)C1(C)CCC(C(C(=O)O)C(=O)O)CC1=O` (stereo not drawn), the TGI with CCRF-CEM leukemia, in the assay on IGROV1 ovarian, in the assay on MOLT-4 leukemia, in the assay with OVCAR-8 ovarian, in the assay with RXF 393 renal and in the assay on SF-295 CNS was more than 100 µM each time. The TGI in the assay with SF-539 CNS, in the assay on SK-MEL-28 melanoma and with SNB-19 CNS was more than 100 µM each time.

Take `COc1ccc2ccccc2c1C1=NC(C)(C)CO1`: the TGI in the assay on CCRF-CEM leukemia, in the assay with IGROV1 ovarian, in the assay with MOLT-4 leukemia, in the assay on OVCAR-8 ovarian, in the assay with RXF 393 renal and in the assay with SF-295 CNS was more than 100 µM throughout. For the same compound, the TGI in the assay on SF-539 CNS, in the assay with SK-MEL-28 melanoma and with SNB-19 CNS was more than 100 µM in each case.

With `CC(=O)[CH-]C(=O)c1ccccc1.[C-]#[O+].[C-]#[O+].[Ir]`, the GI50 in the assay with IGROV1 ovarian, with OVCAR-8 ovarian, in the assay with RXF 393 renal, in the assay on SF-295 CNS, with SF-539 CNS and in the assay with SK-MEL-28 melanoma was more than 100 µM in each case. The GI50 with SNB-19 CNS was more than 100 µM. For the same compound, the TGI in the assay with IGROV1 ovarian, with OVCAR-8 ovarian, in the assay on RXF 393 renal, in the assay on SF-295 CNS, with SF-539 CNS and in the assay on SK-MEL-28 melanoma was more than 100 µM in each case. In the assay on SNB-19 CNS, this compound displayed a TGI of more than 100 µM.

For `COc1ccc2c(C(=O)O)cc3ccccc3c2c1OC`, the TGI in the assay on CCRF-CEM leukemia was 88.4 µM; with MOLT-4 leukemia, more than 100 µM; in the assay on OVCAR-8 ovarian it was 56.8 µM; with RXF 393 renal, 28.6 µM; in the assay on SF-295 CNS, more than 100 µM; in the assay with SF-539 CNS, 57.7 µM. In addition, the TGI with SK-MEL-28 melanoma is 33.6 µM; with SNB-19 CNS it was more than 100 µM.

As for `COc1ccc(/C=C2\C(=O)N(NC(C)=O)c3ccccc32)cc1`, the TGI in the assay with CCRF-CEM leukemia, in the assay with IGROV1 ovarian, in the assay with MOLT-4 leukemia, with OVCAR-8 ovarian, in the assay with SF-295 CNS and with SF-539 CNS was more than 100 µM throughout. Also, the TGI with SK-MEL-28 melanoma and with SNB-19 CNS was more than 100 µM in each case.

As to `CC(=O)OCC(=O)[C@@]1(O)CC[C@H]2[C@@H]3C[C@H](C)C4=CC(=O)C=C[C@]4(C)[C@@]3(F)[C@@H](O)C[C@@]21C`, the TGI with CCRF-CEM leukemia, with IGROV1 ovarian, in the assay on MOLT-4 leukemia, in the assay with RXF 393 renal, in the assay on SF-295 CNS and in the assay on SF-539 CNS was more than 100 µM each time. Further, the TGI in the assay on SK-MEL-28 melanoma and in the assay with SNB-19 CNS was more than 100 µM throughout.

As for `O=C(NCCc1ccccc1)C1C(=O)C(=O)N(CCc2ccccc2)C1=O` (stereo not drawn), the TGI with CCRF-CEM leukemia, in the assay on IGROV1 ovarian, in the assay with MOLT-4 leukemia, with SF-295 CNS, with SF-539 CNS and in the assay on SK-MEL-28 melanoma was more than 100 µM each time. In the assay with SNB-19 CNS, this compound showed a TGI of more than 100 µM.

As to `c1ccc(C(c2ccccc2)c2ccccn2)cc1`, the TGI with CCRF-CEM leukemia, in the assay on IGROV1 ovarian, in the assay on OVCAR-8 ovarian, in the assay on SF-295 CNS, with SF-539 CNS and with SK-MEL-28 melanoma was more than 100 µM throughout. Further, the TGI in the assay on SNB-19 CNS is more than 100 µM.

On to `O=C(c1ccccc1)[C@H]1Nc2ccc(Cl)cc2[C@H]2CCC[C@@H]12`, for which the TGI was more than 100 µM with IGROV1 ovarian; 86.8 µM with MOLT-4 leukemia; more than 100 µM in the assay on OVCAR-8 ovarian; 82.6 µM in the assay with RXF 393 renal; more than 100 µM with SF-295 CNS; more than 100 µM in the assay on SF-539 CNS. Besides, the TGI in the assay with SK-MEL-28 melanoma is 92.6 µM; with SNB-19 CNS, more than 100 µM.

Consider `O=C1C2C3C=CC(C2C(=O)N1CO)C1C2C(=O)N(CO)C(=O)C2C31` (stereo not drawn), for which the TGI in the assay on CCRF-CEM leukemia was more than 59.3 µM; in the assay with IGROV1 ovarian, more than 100 µM; in the assay on MOLT-4 leukemia, more than 100 µM; in the assay with OVCAR-8 ovarian, more than 75.8 µM; with RXF 393 renal, more than 100 µM; with SF-295 CNS, more than 100 µM. Also, the TGI in the assay with SF-539 CNS, with SK-MEL-28 melanoma and in the assay on SNB-19 CNS was more than 100 µM throughout.

Consider `COc1cc(OC)c(OC)cc1/C=C/c1nc2ccccc2s1`, for which the TGI with CCRF-CEM leukemia, with IGROV1 ovarian, in the assay with MOLT-4 leukemia, with OVCAR-8 ovarian, in the assay on RXF 393 renal and with SF-295 CNS was more than 100 µM in each case. The TGI with SF-539 CNS, in the assay on SK-MEL-28 melanoma and with SNB-19 CNS was more than 100 µM each time.
